Results: patent US8586505B2 (SDS Biotech K. K., priority 2009, dated 2013)

Columns and labels:
Format in all cases: in vivo
Sphaerotheca fuliginea = assay: Test of examining control effect on Sphaerotheca fuliginea (potted cucumber plants); details: Podosphaera fuliginea, 336 h; 10% wettable powder adjusted to 125 ppm, 15 ml/pot sprayed on potted cucumber plants one day before spray inoculation; assessed after 14 days in greenhouse; read-out: Determination of control effect (preventive value) on Sphaerotheca fuliginea
Procedure: (§1) Calculation of Preventive Value: Preventive value={(untreated lesion area rate−treated lesion area rate)/untreated lesion area rate}×100
(§2) Using the thus calculated preventive value, the control effect of each compound was determined in accordance with the following standards.
(§3) High control effect: 100%≧preventive value≧60%
(§4) Low control effect: 60%>preventive value≧0%
Using a spray gun, an agent solution prepared by adjusting a 10% wettable powder of each sample compound to 125 ppm (hereinafter referred to as a “sample agent solution”) was sprayed to potted cucumber plants (variety: Sagamihanjiro, 2nd leave stage) in a concentration of 15 ml/pot. One day after the spraying, a conidial suspension of Sphaerotheca fuliginea (conidial concentration: 1.0×10^5 cells/ml) was applied to the plants by spray inoculation. The plants were left in a greenhouse for 14 days, so that they were fully infected with the aforementioned disease. Thereafter, the disease level on each leaf was compared with that on an untreated leaf, and the control effect of each compound was determined in the same manner as in Example 3(1).

Phytophthora infestans = assay: whole plant or invertebrate; details: in Solanum lycopersicum, 96 h, read-out: Determination of control effect (preventive value)
[1] = test system: Pseudoperonospora cubensis; assay: Test of examining control effect on Pseudoperonospora cubensis (potted cucumber plants); details: 96 h, 10% wettable powder adjusted to 125 ppm, 15 ml/pot sprayed on potted cucumber plants one day before spray inoculation, assessed after 1 day wet chamber and 3 days greenhouse, read-out: Determination of control effect (preventive value) on Pseudoperonospora cubensis
Procedure: as §1, §2, §3, §4
Using a spray gun, an agent solution prepared by adjusting a 10% wettable powder of each sample compound to 125 ppm (hereinafter referred to as a “sample agent solution”) was sprayed to potted cucumber plants (variety: Sagamihanjiro, 2.5 leave stage) in a concentration of 15 ml/pot. One day after the spraying, a conidial suspension of Pseudoperonospora cubensis (conidial concentration: 1.0×10^4 cells/ml) was applied to the plants by spray inoculation. After completion of the inoculation, the plants were left at 21° C. under wet chamber conditions for 1 day, and were then left in a greenhouse for 3 days, so that they were fully infected with the aforementioned disease. Thereafter, the disease level on each leaf was compared with that on an untreated leaf, and the control effect of each compound was determined in the same manner as in Example 3(1).

Structure (SMILES) | pest or weed control at 125 µg/mL (Sphaerotheca fuliginea) [%] | pest or weed control at 125 ppm (Phytophthora infestans) [%] | pest or weed control at 125 µg/mL [1] [%]
C#CCC(Nc1ncnc2ccccc12)c1ccccc1 (stereo not drawn) [compound 300, 4-[(1-Phenyl-3-butynyl)amino]quinazoline] | 60 to 100 | 0 to 60 | 60 to 100
CCCC(CC#Cc1ccccc1)Nc1ncnc2sccc12 (stereo not drawn) [compound 268] | 60 to 100 | 0 to 60 | 60 to 100
COCc1ccc(C#CCCNc2ncnc3ccccc23)cc1 [compound 136] | 60 to 100 | 0 to 60 | 60 to 100
Fc1cccc(C#CCCNc2ncnc3sccc23)c1 [compound 12] | 60 to 100 | 0 to 60 | 60 to 100
COC(=O)N(OC)c1ccccc1C#CCCNc1ncnc2ccccc12 [compound 125] | 0 to 60 | 60 to 100 | 60 to 100
C(#Cc1csc(-c2cccs2)n1)CCNc1ncnc2sccc12 [compound 79] | 60 to 100 | 0 to 60 | 60 to 100
N#Cc1cc(C(F)(F)F)ccc1C#CCCNc1ncnc2ccccc12 [compound 187] | 0 to 60 | 0 to 60 | 60 to 100
CC(C)(C)C#CCCNc1ncnc2sccc12 [compound 8] | 60 to 100 | 60 to 100 | 60 to 100
CCC(CC#Cc1ccc(F)cc1)Nc1ncnc2ccccc12 (stereo not drawn) [compound 294] | 60 to 100 | 0 to 60 | 60 to 100
C[Si](C)(C)C#CCCNc1ncnc2ccccc12 [compound 87] | 60 to 100 | 60 to 100 | 60 to 100
CC(CC#Cc1ccccc1Cl)Nc1ncnc2ccccc12 (stereo not drawn) [compound 272] | 60 to 100 | 60 to 100 | 60 to 100
COc1cccc2c(NC(C)CC#Cc3ccc(Cl)cc3C(F)(F)F)ncnc12 (stereo not drawn) [compound 352] | 60 to 100 | 0 to 60 | 60 to 100
COCc1ccccc1C#CCCNc1ncnc2ccc(C)cc12 [compound 326] | 60 to 100 | 0 to 60 | 60 to 100
CC(C)C(CC#Cc1ccccc1)Nc1ncnc2ccccc12 (stereo not drawn) [compound 298] | 60 to 100 | 60 to 100 | 60 to 100
COCc1cc(F)ccc1C#CCCNc1ncnc2ccccc12 [compound 139] | 60 to 100 | 60 to 100 | 60 to 100
COc1ccccc1C#CCC(C)Nc1ncnc2ccccc12 (stereo not drawn) [compound 276] | 0 to 60 | 60 to 100 | 60 to 100
Fc1ccc(Oc2nc(C#CCCNc3ncnc4ccccc34)cs2)cc1 [compound 226] | 60 to 100 | 60 to 100 | 60 to 100
Cc1nc(C#CCCNc2ncnc3ccccc23)cs1 [compound 211] | 60 to 100 | 60 to 100 | 60 to 100
COCc1ccccc1C#CCCNc1ncnc2ccc(Br)cc12 [compound 321] | 60 to 100 | 0 to 60 | 60 to 100
CC(CC#Cc1ccc(C(F)(F)F)cc1)Nc1ncnc2ccccc12 (stereo not drawn) [compound 275] | 60 to 100 | 60 to 100 | 60 to 100
CC(CC#Cc1ccc(F)cc1C(F)(F)F)Nc1ncnc2cc(F)ccc12 (stereo not drawn) [compound 347] | 60 to 100 | 0 to 60 | 60 to 100
C(#Cc1csc(Oc2ccccc2)n1)CCNc1ncnc2ccccc12 [compound 227] | 60 to 100 | 60 to 100 | 60 to 100
Nc1c(Cl)ncnc1NCCC#Cc1ccccc1C(F)(F)F [compound 368] | 60 to 100 | 0 to 60 | 60 to 100

Structure (SMILES) | pest or weed control at 125 µg/mL (Sphaerotheca fuliginea) [%] | pest or weed control at 125 ppm (Phytophthora infestans) [%] | pest or weed control at 125 µg/mL [1] [%]
FC(F)(F)c1ccc(C#CCCNc2ncnc3ccccc23)nc1 [compound 197] | 60 to 100 | 0 to 60 | 60 to 100
CN(C)S(=O)(=O)c1ccccc1C#CCCNc1ncnc2ccccc12 [compound 161] | 0 to 60 | 60 to 100 | 60 to 100
Cc1ccc(F)cc1C#CCCNc1ncnc2ccccc12 [compound 167] | 60 to 100 | 0 to 60 | 60 to 100
COCc1ccc(C)cc1C#CCCNc1ncnc2ccccc12 [compound 144] | 60 to 100 | 60 to 100 | 60 to 100
CCOC(=O)C(CC#Cc1ccccc1C(F)(F)F)Nc1ncnc2ccccc12 (stereo not drawn) [compound 304] | 60 to 100 | 0 to 60 | 60 to 100
CC(CC#Cc1ccc(C(F)(F)F)cc1C(F)(F)F)Nc1ncnc2ccccc12 (stereo not drawn) [compound 280] | 0 to 60 | 0 to 60 | 60 to 100
CCOC(OCC)c1ccccc1C#CCCNc1ncnc2ccccc12 [compound 150] | 0 to 60 | 0 to 60 | 0 to 60
CS(=O)(=O)Nc1ccc(C#CCCNc2ncnc3ccccc23)cc1 [compound 123] | 0 to 60 | 0 to 60 | 60 to 100
COCc1ccccc1C#CCCNc1ncnc2ccc([N+](=O)[O-])cc12 [compound 331] | 0 to 60 | 0 to 60 | 60 to 100
CC(C)c1ccccc1C#CCCNc1ncnc2ccccc12 [compound 104] | 60 to 100 | 60 to 100 | 60 to 100
COc1ccccc1C#CCCNc1ncnc2sccc12 [compound 21] | 0 to 60 | 60 to 100 | 60 to 100
CC(CC#Cc1ccc(Cl)cc1C(F)(F)F)Nc1ncnc2c(C(F)(F)F)cccc12 (stereo not drawn) [compound 351] | 60 to 100 | 0 to 60 | 60 to 100
CC(C)CC#CCCNc1ncnc2sccc12 [compound 7, 4-(6-Methyl-3-heptynylamino)thieno[2,3-d]pyrimidine] | 60 to 100 | 60 to 100 | 60 to 100
COCc1ccccc1C#CCCNc1ncnc2ccc(-c3cccnc3)cc12 [compound 337] | 0 to 60 | 0 to 60 | 60 to 100
Fc1ccc(C#CCCNc2ncnc3ccccc23)c(C(F)(F)F)c1 [compound 169] | 60 to 100 | 60 to 100 | 60 to 100
CCOC(OCC)c1ccc(C#CCCNc2ncnc3ccccc23)cc1 [compound 151] | 60 to 100 | 60 to 100 | 60 to 100
COCc1cccc(F)c1C#CCCNc1ncnc2ccccc12 [compound 141] | 60 to 100 | 60 to 100 | 60 to 100
CC(CC#Cc1c(Cl)cccc1C(F)(F)F)Nc1ncnc2sccc12 (stereo not drawn) [compound 252] | 60 to 100 | 0 to 60 | 60 to 100
N#CCc1ccccc1C#CCCNc1ncnc2ccccc12 [compound 147] | 60 to 100 | 60 to 100 | 60 to 100
COc1ccccc1C#CCCNc1ncnc2ccccc12 [compound 115] | 60 to 100 | 60 to 100 | 60 to 100
CC(CC#Cc1csc(Oc2ccccc2)n1)Nc1ncnc2ccccc12 (stereo not drawn) [compound 293] | 60 to 100 | 60 to 100 | 60 to 100
CC(CC#Cc1ccc(Cl)cc1C(F)(F)F)Nc1ncnc2ccc(F)cc12 (stereo not drawn) [compound 345] | 60 to 100 | 0 to 60 | 60 to 100
